In PubChem BioAssay (NCI):
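48-hour exposure; five concentrations; linearly interpolated endpoints. TGI denotes the concentration required for complete inhibition of growth.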

test system: T-47D breast; test: DTP human tumour cell line panel, 48 h

Q: How did the TGI turn out when `CC(=O)NC1C(Sc2ncn(C3OC(CO)C(O)C(O)C3NC(C)=O)n2)OC(CO)C(O)C1O` (stereo not given) was run?
A: Its TGI is over 100 µM.

test system: MDA-N; test: DTP human tumour cell line panel, 48 h

Q: Which TGI does the source give for `Cc1ccc(C(=O)NCc2ccccc2)cc1N=NN(C)C` here?
A: The TGI was over 100 µM.

Q: With `c1ccc2c3[nH]c(c2c1)=Nc1ccc(cc1)-c1nc2ccc(cc2o1)N=c1[nH]c(c2ccccc12)=Nc1ccc2nc(oc2c1)-c1ccc(cc1)N=3` as the compound, how does the TGI read?
A: Its TGI is over 100 µM.

Q: `COc1cccc(CC(=O)N2CCN(CCCc3ccccc3)CC2)c1` was tested. Which TGI did it give?
A: Its TGI is over 100 µM.

Q: With `Cn1c(=S)c2[nH]c(SCCCc3ccccc3)nc2n(C)c1=O` as the compound, how does the TGI read?
A: Its TGI is over 100 µM.

Q: `O=C1CC(=O)NC(=NN2C(=O)/C(=C/c3ccc(Cl)c(Cl)c3)N=C2c2ccccc2)N1` was tested. Which TGI did it give?
A: The TGI was 90.7 µM.

Q: With `CC1=NC(C)(COC(=O)C2(C)NC(C)(CO)CO2)COC1=O` (stereo not given) as the compound, how does the TGI read?
A: Its TGI is over 100 µM.

Q: Which TGI does the source give for `CC(=O)NC1C(Sc2ncn(C3OC(CO)C(O)C(O)C3NC(C)=O)n2)OC(CO)C(O)C1O` (stereo not given) here?
A: The TGI was over 100 µM.

test system: RPMI-8226 leukemia; test: DTP human tumour cell line panel, 48 h

Q: For `Cc1ccc(C(=O)NCc2ccccc2)cc1N=NN(C)C`, which TGI is on record?
A: Its TGI is over 100 µM.

Q: How did the TGI turn out when `c1ccc2c3[nH]c(c2c1)=Nc1ccc(cc1)-c1nc2ccc(cc2o1)N=c1[nH]c(c2ccccc12)=Nc1ccc2nc(oc2c1)-c1ccc(cc1)N=3` was run?
A: The TGI was 86.2 µM.

Q: Which TGI does the source give for `COc1cccc(CC(=O)N2CCN(CCCc3ccccc3)CC2)c1` here?
A: The TGI was over 100 µM.

Q: `Cn1c(=S)c2[nH]c(SCCCc3ccccc3)nc2n(C)c1=O` was tested. Which TGI did it give?
A: The TGI was 92.6 µM.

Q: With `O=C1CC(=O)NC(=NN2C(=O)/C(=C/c3ccc(Cl)c(Cl)c3)N=C2c2ccccc2)N1` as the compound, how does the TGI read?
A: Its TGI is 47 µM.

Q: Which TGI does the source give for `CC1=NC(C)(COC(=O)C2(C)NC(C)(CO)CO2)COC1=O` (stereo not given) here?
A: Its TGI is over 100 µM.

Q: With `CC(=O)NC1C(Sc2ncn(C3OC(CO)C(O)C(O)C3NC(C)=O)n2)OC(CO)C(O)C1O` (stereo not given) as the compound, how does the TGI read?
A: The TGI was over 100 µM.

test system: NCI-H23 lung; test: DTP human tumour cell line panel, 48 h

Q: With `Cc1ccc(C(=O)NCc2ccccc2)cc1N=NN(C)C` as the compound, how does the TGI read?
A: Its TGI is over 100 µM.

Q: With `c1ccc2c3[nH]c(c2c1)=Nc1ccc(cc1)-c1nc2ccc(cc2o1)N=c1[nH]c(c2ccccc12)=Nc1ccc2nc(oc2c1)-c1ccc(cc1)N=3` as the compound, how does the TGI read?
A: The TGI was over 100 µM.

Q: Which TGI does the source give for `COc1cccc(CC(=O)N2CCN(CCCc3ccccc3)CC2)c1` here?
A: Its TGI is over 100 µM.

Q: For `Cn1c(=S)c2[nH]c(SCCCc3ccccc3)nc2n(C)c1=O`, which TGI is on record?
A: Its TGI is over 100 µM.

Q: For `O=C1CC(=O)NC(=NN2C(=O)/C(=C/c3ccc(Cl)c(Cl)c3)N=C2c2ccccc2)N1`, which TGI is on record?
A: Its TGI is over 100 µM.

Q: `CC1=NC(C)(COC(=O)C2(C)NC(C)(CO)CO2)COC1=O` (stereo not given) was tested. Which TGI did it give?
A: Its TGI is over 100 µM.

Q: How did the TGI turn out when `CC(=O)NC1C(Sc2ncn(C3OC(CO)C(O)C(O)C3NC(C)=O)n2)OC(CO)C(O)C1O` (stereo not given) was run?
A: The TGI was over 100 µM.

test system: UO-31 renal; test: DTP human tumour cell line panel, 48 h

Q: With `Cc1ccc(C(=O)NCc2ccccc2)cc1N=NN(C)C` as the compound, how does the TGI read?
A: Its TGI is over 100 µM.

Q: Which TGI does the source give for `c1ccc2c3[nH]c(c2c1)=Nc1ccc(cc1)-c1nc2ccc(cc2o1)N=c1[nH]c(c2ccccc12)=Nc1ccc2nc(oc2c1)-c1ccc(cc1)N=3` here?
A: The TGI was 45.5 µM.

Q: `COc1cccc(CC(=O)N2CCN(CCCc3ccccc3)CC2)c1` was tested. Which TGI did it give?
A: The TGI was over 100 µM.

Q: Which TGI does the source give for `Cn1c(=S)c2[nH]c(SCCCc3ccccc3)nc2n(C)c1=O` here?
A: The TGI was 64.4 µM.

Q: For `O=C1CC(=O)NC(=NN2C(=O)/C(=C/c3ccc(Cl)c(Cl)c3)N=C2c2ccccc2)N1`, which TGI is on record?
A: Its TGI is over 100 µM.

Q: `CC1=NC(C)(COC(=O)C2(C)NC(C)(CO)CO2)COC1=O` (stereo not given) was tested. Which TGI did it give?
A: The TGI was over 100 µM.

test system: UACC-62 melanoma; test: DTP human tumour cell line panel, 48 h

Q: How did the TGI turn out when `Cc1ccc(C(=O)NCc2ccccc2)cc1N=NN(C)C` was run?
A: Its TGI is over 100 µM.

Q: For `c1ccc2c3[nH]c(c2c1)=Nc1ccc(cc1)-c1nc2ccc(cc2o1)N=c1[nH]c(c2ccccc12)=Nc1ccc2nc(oc2c1)-c1ccc(cc1)N=3`, which TGI is on record?
A: The TGI was over 100 µM.

Q: How did the TGI turn out when `COc1cccc(CC(=O)N2CCN(CCCc3ccccc3)CC2)c1` was run?
A: The TGI was over 100 µM.

Q: How did the TGI turn out when `Cn1c(=S)c2[nH]c(SCCCc3ccccc3)nc2n(C)c1=O` was run?
A: The TGI was over 100 µM.

Q: `O=C1CC(=O)NC(=NN2C(=O)/C(=C/c3ccc(Cl)c(Cl)c3)N=C2c2ccccc2)N1` was tested. Which TGI did it give?
A: The TGI was 32.6 µM.

Q: For `CC1=NC(C)(COC(=O)C2(C)NC(C)(CO)CO2)COC1=O` (stereo not given), which TGI is on record?
A: Its TGI is over 100 µM.

Q: For `CC(=O)NC1C(Sc2ncn(C3OC(CO)C(O)C(O)C3NC(C)=O)n2)OC(CO)C(O)C1O` (stereo not given), which TGI is on record?
A: Its TGI is over 100 µM.

test system: U251 CNS; test: DTP human tumour cell line panel, 48 h

Q: For `Cc1ccc(C(=O)NCc2ccccc2)cc1N=NN(C)C`, which TGI is on record?
A: The TGI was over 100 µM.

Q: How did the TGI turn out when `c1ccc2c3[nH]c(c2c1)=Nc1ccc(cc1)-c1nc2ccc(cc2o1)N=c1[nH]c(c2ccccc12)=Nc1ccc2nc(oc2c1)-c1ccc(cc1)N=3` was run?
A: The TGI was 88.3 µM.

Q: `COc1cccc(CC(=O)N2CCN(CCCc3ccccc3)CC2)c1` was tested. Which TGI did it give?
A: Its TGI is over 100 µM.

Q: For `Cn1c(=S)c2[nH]c(SCCCc3ccccc3)nc2n(C)c1=O`, which TGI is on record?
A: The TGI was over 100 µM.

Q: For `O=C1CC(=O)NC(=NN2C(=O)/C(=C/c3ccc(Cl)c(Cl)c3)N=C2c2ccccc2)N1`, which TGI is on record?
A: The TGI was 90.4 µM.

Q: For `CC1=NC(C)(COC(=O)C2(C)NC(C)(CO)CO2)COC1=O` (stereo not given), which TGI is on record?
A: Its TGI is over 100 µM.

Q: How did the TGI turn out when `CC(=O)NC1C(Sc2ncn(C3OC(CO)C(O)C(O)C3NC(C)=O)n2)OC(CO)C(O)C1O` (stereo not given) was run?
A: The TGI was over 100 µM.

test system: LXFL 529 NSCLC; test: DTP human tumour cell line panel, 48 h

Q: How did the TGI turn out when `Cc1ccc(C(=O)NCc2ccccc2)cc1N=NN(C)C` was run?
A: Its TGI is over 100 µM.

test system: PC-3 prostate; test: DTP human tumour cell line panel, 48 h

Q: For `Cc1ccc(C(=O)NCc2ccccc2)cc1N=NN(C)C`, which TGI is on record?
A: Its TGI is over 100 µM.

Q: How did the TGI turn out when `c1ccc2c3[nH]c(c2c1)=Nc1ccc(cc1)-c1nc2ccc(cc2o1)N=c1[nH]c(c2ccccc12)=Nc1ccc2nc(oc2c1)-c1ccc(cc1)N=3` was run?
A: The TGI was over 100 µM.

Q: `COc1cccc(CC(=O)N2CCN(CCCc3ccccc3)CC2)c1` was tested. Which TGI did it give?
A: The TGI was over 100 µM.

Q: Which TGI does the source give for `Cn1c(=S)c2[nH]c(SCCCc3ccccc3)nc2n(C)c1=O` here?
A: Its TGI is over 100 µM.

Q: Which TGI does the source give for `O=C1CC(=O)NC(=NN2C(=O)/C(=C/c3ccc(Cl)c(Cl)c3)N=C2c2ccccc2)N1` here?
A: Its TGI is 72.7 µM.

Q: With `CC1=NC(C)(COC(=O)C2(C)NC(C)(CO)CO2)COC1=O` (stereo not given) as the compound, how does the TGI read?
A: Its TGI is over 100 µM.

Q: Which TGI does the source give for `CC(=O)NC1C(Sc2ncn(C3OC(CO)C(O)C(O)C3NC(C)=O)n2)OC(CO)C(O)C1O` (stereo not given) here?
A: Its TGI is over 100 µM.
